Experiment [1] deals with gel-filtered human platelets. Briefly: Inhibition of aggregation of gel-filtered human platelets after ADP or thrombin stimulation. It counts as cell-based. The settings on record: platelet aggregation. The protocol:
(§1) The compounds are tested above all for their inhibiting action on blood platelet aggregation and the adhesion of fibrinogen to blood platelets.
(§2) Gel-filtered blood platelets from human donor blood activated with ADP or thrombin are used.
B) As a functional test, the inhibition of aggregation of gel-filtered human platelets by the compounds according to the invention after ADP or thrombin stimulation is measured. The IC50 value of the inhibition is stated.

In experiment [2] the target is T1, fibrinogen receptor (glycoprotein IIb/IIIa) (Homo sapiens, UniProt P05106+P08514).
T1 construct: its receptor (glycoprotein IIb/IIIa) on intact, gel-filtered human platelets; endogenous in cells; host or cells: gel-filtered human platelets from donor blood, stimulated with ADP (10 µM)
Briefly: Inhibition of bonding of 125I-fibrinogen to its receptor on intact, gel-filtered human platelets. It counts as binding. To be noted: inhibition of 125I-fibrinogen bonding after stimulation with ADP (10 μM), read-out: K1 (μm), ADP stimulated. The protocol:
as §1, §2
A) Inhibition of bonding of fibrinogen to its receptor (glycoprotein IIb/IIIa) on intact, gel-filtered human platelets by the compounds according to the invention is tested. The Ki value of the inhibition of the bonding of ^125 I-fibrinogen after stimulation with ADP (10 μM) is stated.
Literature: J. S. Bennett and G. Vilaire, J. Clin. Invest. 64 (1979), 1393-1401

The mark [3] stands for this setting: ADP stimulation, read-out: IC50 (μM), ADP-stimulated.
Where [4] appears, read: thrombin stimulation, read-out: IC50 (μM), Thrombin-stimulated.
[5] abbreviates: Homo sapiens, ADP stimulation, read-out: IC50 (μM), ADP-stimulated.
Where [6] appears, read: Homo sapiens, thrombin stimulation, read-out: IC50 (μM), Thrombin-stimulated.

The term IC50 denotes the point on the concentration scale where inhibition reaches its midpoint.

Where two headings read alike, the source gives them in different places.

T1 sequence (P08514 32-887 limits assumed): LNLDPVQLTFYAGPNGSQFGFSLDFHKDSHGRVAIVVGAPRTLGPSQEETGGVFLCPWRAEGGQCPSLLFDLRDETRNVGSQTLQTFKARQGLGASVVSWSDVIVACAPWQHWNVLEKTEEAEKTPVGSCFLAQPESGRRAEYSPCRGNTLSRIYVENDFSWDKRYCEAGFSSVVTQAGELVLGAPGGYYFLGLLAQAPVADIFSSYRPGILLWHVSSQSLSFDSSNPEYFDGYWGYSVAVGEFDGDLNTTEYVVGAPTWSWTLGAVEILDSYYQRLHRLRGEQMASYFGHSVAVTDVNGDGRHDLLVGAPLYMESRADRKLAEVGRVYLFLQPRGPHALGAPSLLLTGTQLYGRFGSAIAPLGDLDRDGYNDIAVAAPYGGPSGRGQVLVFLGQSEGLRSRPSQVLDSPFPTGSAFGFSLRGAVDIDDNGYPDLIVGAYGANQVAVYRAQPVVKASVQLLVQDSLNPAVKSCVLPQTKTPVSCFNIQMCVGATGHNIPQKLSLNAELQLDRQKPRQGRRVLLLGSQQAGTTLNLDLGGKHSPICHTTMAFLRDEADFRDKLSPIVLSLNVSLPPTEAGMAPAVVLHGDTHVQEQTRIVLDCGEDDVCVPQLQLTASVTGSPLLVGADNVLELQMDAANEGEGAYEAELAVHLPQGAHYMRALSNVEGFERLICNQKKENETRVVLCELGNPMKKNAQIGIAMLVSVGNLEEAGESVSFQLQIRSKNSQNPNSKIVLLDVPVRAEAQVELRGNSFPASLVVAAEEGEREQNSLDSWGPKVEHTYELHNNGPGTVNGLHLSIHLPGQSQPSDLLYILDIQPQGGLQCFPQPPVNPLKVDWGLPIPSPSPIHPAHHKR
T1 sequence (P08514 891-1039 partner limits assumed): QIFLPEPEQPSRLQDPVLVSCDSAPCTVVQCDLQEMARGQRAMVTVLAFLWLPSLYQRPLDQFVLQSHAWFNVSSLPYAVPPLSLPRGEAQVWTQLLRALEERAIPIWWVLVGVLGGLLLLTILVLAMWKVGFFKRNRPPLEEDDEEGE
T1 sequence (P05106 27-788): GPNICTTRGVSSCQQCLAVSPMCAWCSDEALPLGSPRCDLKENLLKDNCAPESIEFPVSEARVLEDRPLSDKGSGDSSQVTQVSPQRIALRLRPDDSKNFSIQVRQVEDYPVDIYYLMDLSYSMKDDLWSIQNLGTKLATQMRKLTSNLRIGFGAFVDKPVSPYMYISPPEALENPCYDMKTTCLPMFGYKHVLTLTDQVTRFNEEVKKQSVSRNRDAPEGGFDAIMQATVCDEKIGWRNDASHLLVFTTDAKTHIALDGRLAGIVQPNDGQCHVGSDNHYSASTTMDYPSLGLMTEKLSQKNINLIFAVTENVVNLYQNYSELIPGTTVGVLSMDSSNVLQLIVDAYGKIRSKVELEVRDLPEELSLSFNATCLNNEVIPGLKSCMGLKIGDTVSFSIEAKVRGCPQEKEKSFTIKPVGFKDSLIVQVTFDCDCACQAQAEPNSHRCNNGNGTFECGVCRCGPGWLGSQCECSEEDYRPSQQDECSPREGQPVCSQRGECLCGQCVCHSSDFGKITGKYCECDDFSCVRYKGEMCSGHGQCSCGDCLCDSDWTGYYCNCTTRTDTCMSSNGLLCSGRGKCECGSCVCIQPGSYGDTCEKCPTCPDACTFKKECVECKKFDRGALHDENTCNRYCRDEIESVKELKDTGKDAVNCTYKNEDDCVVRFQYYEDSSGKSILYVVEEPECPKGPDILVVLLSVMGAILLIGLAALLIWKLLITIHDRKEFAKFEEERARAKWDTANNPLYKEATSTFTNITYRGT

In the case of `N=C(N)c1ccc(CC2NC(=O)N(CC(=O)NCCC(=O)O)C2=O)cc1` (racemic) [Example 6, [5-(S,R)-(4-Formamidino-benzyl) -2,4-dioxoimidazolidin-3-yl]-acetyl-β-alanine], the IC50 came to 5.5 µM in experiment [1] (setting [3]) and 3 µM in experiment [1] (setting [4]). Moreover, the Ki in experiment [2] is 1910 nM.

As to `CC(C)[C@H](NC(=O)[C@H](CC(=O)O)NC(=O)CN1C(=O)NC(Cc2ccc(C(=N)N)cc2)C1=O)C(=O)O` (stereo partly drawn) [Example 1, [5-(S,R )-(4-Formamidino-benzyl)-2,4-dioxoimidazolidin-3-yl]-acetyl-L-aspartyl-L-valine.], the results for the IC50 in experiment [1] (setting [3]) and in experiment [1] (setting [4]) were 0.4 µM and 0.15 µM, respectively. For the same molecule, the Ki in experiment [2] is 31 nM.

With `CC(C)[C@H](NC(=O)[C@H](CC(=O)O)NC(=O)CN1C(=O)[C@H](CCCNC(=N)N)N(C)C1=O)C(=O)O` [Example 2], the results for the IC50 in experiment [1] (setting [5]) and in experiment [1] (setting [6]) were 4.5 µM and 1.5 µM, respectively. Besides, the Ki in experiment [2] was 400 nM.

For the molecule `CC(C)[C@H](NC(=O)[C@H](CC(=O)O)NC(=O)CN1C(=O)N[C@@H](CCCCN)C1=O)C(=O)O` [Example 3, [5-(S)-(4-Amino-butyl)-2,4-dioxoimidazolidin-3-yl]-acetyl-Asp-Val-OH], the values for the IC50 in experiment [1] (setting [3]) and in experiment [1] (setting [4]) were 30 µM and 4 µM, respectively.

Take `N=C(N)c1ccc(CC2NC(=O)N(CC(=O)N[C@@H](CC(=O)O)C(=O)N[C@H](C(=O)O)c3ccccc3)C2=O)cc1` (stereo partly drawn) [Example 5, [5-(S,R)-(4-Formamidino-benzyl) -2,4-dioxoimidazolidin-3-yl]-acetyl-L-aspartyl-L-phenylglycine]: the IC50 in experiment [1] (setting [3]) turned out to be 0.2 µM; in experiment [1] (setting [4]), 0.1 µM. Also, the Ki in experiment [2] is 22 nM.

For the molecule `CC(C)[C@H](NC(=O)[C@H](CC(=O)O)NC(=O)CN1C(=O)N[C@@H](Cc2ccc(N)cc2)C1=O)C(=O)O` [Example 7], in experiment [2], the Ki was determined as 2430 nM.

Regarding `CC(C)[C@H](NC(=O)[C@H](CC(=O)O)NC(=O)CN1C(=O)N[C@@H](Cc2ccc(NC(=N)N)cc2)C1=O)C(=O)O` [Example 8], the IC50 stood at 6 µM in experiment [1] (setting [5]) and 3 µM in experiment [1] (setting [6]). In addition, in experiment [2], the Ki was determined as 710 nM.

On to `CC(C)[C@H](NC(=O)[C@H](CC(=O)O)NC(=O)c1cccc(N2C(=O)N[C@@H](CCCNC(=N)N)C2=O)c1)C(=O)O` [Example 11, 3-(5-(S)-(3-Guanidinopropyl)-2,4-dioxoimidazolidin-3-yl)benzoyl-L-aspartyl-L-valine], for which, in experiment [2], the Ki stood at 1870 nM.

In the case of `CC[C@H](C)[C@H](NC(=O)[C@H](CC(=O)O)NC(=O)CN1C(=O)NC(Cc2ccc(C(=N)N)cc2)C1=O)C(=O)O` (stereo partly drawn) [Example 12, (5-(R,S)-(4-Formamidinobenzyl)-2,4-dioxo-imidazolidin-3-yl)-acetyl-L-aspartyl-L-isoleucine], the IC50 in experiment [1] (setting [3]) was determined as 0.2 µM; in experiment [1] (setting [4]), 0.1 µM. For the same molecule, the Ki in experiment [2] came to 42 nM.

In the case of `N=C(N)c1ccc(CC2NC(=O)N(CC(=O)N[C@@H](CC(=O)O)C(=O)N[C@@H](CCCCN)C(=O)O)C2=O)cc1` (stereo partly drawn) [Example 13, (5-(R, S)-(4-Formamidinobenzyl)-2,4-dioxo-imidazolidin-3-yl) -acetyl-L-aspartyl-L-lysine], the IC50 turned out to be 0.35 µM in experiment [1] (setting [3]) and 0.4 µM in experiment [1] (setting [4]). For the same molecule, the Ki in experiment [2] is 42 nM.

Turning to `N=C(N)c1ccc(CC2NC(=O)N(CC(=O)N[C@@H](CC(=O)O)C(=O)N[C@@H](Cc3ccccc3)C(=O)O)C2=O)cc1` (stereo partly drawn) [Example 14, (5-(R,S)-(4-Formamidinobenzyl)-2,4-dioxo-imidazolidin-3-yl)-acetyl-L-aspartyl-L-phenylalanine], the IC50 in experiment [1] (setting [3]) is 0.55 µM; in experiment [1] (setting [4]), 0.3 µM. Also, in experiment [2], the Ki amounted to 270 nM.

`NCc1ccc(C=C2NC(=O)N(CC(=O)N[C@@H](CC(=O)O)C(=O)N[C@H](C(=O)O)c3ccccc3)C2=O)cc1` [Example 15]: the IC50 in experiment [1] (setting [5]) was 0.7 µM; in experiment [1] (setting [6]) it was 0.45 µM. Besides, the Ki in experiment [2] is 280 nM.

Regarding `C[C@@H](O)[C@H](NC(=O)[C@H](CC(=O)O)NC(=O)CN1C(=O)NC(Cc2ccc(C(=N)N)cc2)C1=O)C(=O)O` (stereo partly drawn) [Example 16, (5-(R,S)-(4-Formamidinobenzyl)-2,4-dioxo-imidazolidin-3-yl) -acetyl-L-aspartyl-L-threonine], the values for the IC50 in experiment [1] (setting [3]) and in experiment [1] (setting [4]) were 0.7 µM and 0.2 µM, respectively. The Ki in experiment [2] amounted to 120 nM.

Regarding `CCCCCCCCCCCCCCCCOC(=O)[C@@H](NC(=O)[C@H](CC(=O)O)NC(=O)CN1C(=O)NC(Cc2ccc(C(=N)N)cc2)C1=O)c1ccccc1` (some centres unmarked) [Example 17], the values for the IC50 in experiment [1] (setting [3]) and in experiment [1] (setting [4]) were 4.5 µM and 4 µM, respectively.

`NCc1ccc(CC2NC(=O)N(CC(=O)N[C@@H](CC(=O)O)C(=O)N[C@H](C(=O)O)c3ccccc3)C2=O)cc1` (stereo partly drawn) [Example 19, (5-(4-Aminomethylbenzyl)-2,4-dioxo-imidazolidin-3-yl)-acetyl-L-aspartyl-L-phenyglycine]: the IC50 in experiment [1] (setting [3]) was 7 µM; in experiment [1] (setting [4]), 2.5 µM.

As for `CN(C(=O)[C@H](CC(=O)O)NC(=O)CN1C(=O)NC(Cc2ccc(C(=N)N)cc2)C1=O)[C@H](C(=O)O)c1ccccc1` (stereo partly drawn) [Example 20, (5-(R,S)-(4-Formamidinobenzyl)-2,4-dioxo-imidazolidin-3-yl)-acetyl-L-aspartyl-(N-methyl)-L-phenylglycine], the IC50 in experiment [1] (setting [3]) came out at 4.5 µM; in experiment [1] (setting [4]), 2.5 µM. The Ki in experiment [2] worked out at 1590 nM.

In the case of `CC(C)[C@H](NC(=O)[C@H](CC(=O)O)NC(=O)CN1C(=O)NC(Cc2ccc(C(=N)N)cc2)C1=O)C(=O)OCc1ccccc1` (stereo partly drawn) [Example 21, (5-(R,S)-(4-Formamidinobenzyl) -2,4-dioxo-imidazolidin-3-yl) -acetyl-L-aspartyl-L-valine benzyl ester], the IC50 is 0.7 µM in experiment [1] (setting [3]) and 0.3 µM in experiment [1] (setting [4]). The Ki in experiment [2] worked out at 240 nM.

With `N=C(N)c1ccc(CC2NC(=O)N(CC(=O)N[C@@H](CC(=O)O)C(=O)N[C@@H](Cc3c[nH]c4ccccc34)C(=O)O)C2=O)cc1` (stereo partly drawn) [Example 22, (5-(R,S)-(4-Formamidinobenzyl)-2,4-dioxo-imidazolidin-3-yl)-acetyl-L-aspartyl-L-tryptophan], the figures for the IC50 in experiment [1] (setting [3]) and in experiment [1] (setting [4]) were 0.8 µM and 0.25 µM, respectively. Besides, the Ki in experiment [2] was 140 nM.

In the case of `CC(C)[C@H](NC(=O)[C@H](CC(=O)O)NC(=O)CCN1C(=O)N[C@@H](CCCCN)C1=O)C(=O)O` [Example 32], the IC50 in experiment [1] (setting [5]) is 6 µM; in experiment [1] (setting [6]), 2 µM. The Ki in experiment [2] turned out to be 2710 nM.

The values are drawn from patent US5389614A (Cassella AG, priority 1991, dated 1995).
